Measurements published in patent US8273724B2, “Melanoma antigens and their use in diagnostic and therapeutic methods” (The United States of America, as represented by the …, priority 1994, dated 2012).
pIC50: −log10 of the molar value. Like-named read-outs stand apart in the source and are kept apart here. Where a SMILES comes first, the peptide text is derived from it.

Columns and labels:
[1] = molecular target: HLA-A2.1 (Homo sapiens, UniProt P04439, D140Y/D185E/D98H/E176V/E277Q/G131W/G231S/I119V/I121R/I166T/I218V/L300P/L318F/N151K/N90K/P208A/P217A/Q86G/Q94H/R138H/R169H/T345S); test: HLA-A2.1 binding assay of modified peptides, inhibition of radiolabeled Hbc 18-27 (Example 5); settings: for pIC50: modified gp100 G9-154 peptides, read-out: Binding affinity to HLA-A2.1
[2] = system: T2 cell lines preincubated with peptide; test: Recognition of modified peptides by natural epitope (M9-2, G9-154, G9-209, G9-280) reactive T-cells, 51Cr release on peptide-pulsed T2 cells (Example 5); type: cell-based, human
Method: Assessment of antigen recognition by CTL. ^51Cr release cytotoxic assays were performed to detect the recognition of peptide and melanoma cells by CTL. To analyze peptide recognition, T2 cell lines were preincubated for 2 h at 37° C. with 1 ug/ml peptide, washed and used as target cells in a ^51Cr release cytotoxic assay. The melanoma lines 624mel was established in our laboratory (See Example 1).
In order to make more immunogenic peptides for induction of anti-melanoma T-cells than natural melanoma epitopes, a variety of peptides in which at least 1 amino acid was changed based on consensus motifs in peptides binding to a specific MHC Class I allele Falk, et al. (1991) Nature 351:290; Kubo et al. (1994) J. Immunol 152:3913; Parker, K. et al. (1992) Journal of Immunology 149:3580; Ruppert, J. et al. (1993) Cell 74:929-937) (Tables 14, 15, 16, and 17). […] By changing amino acid at the 1st, 2nd, 3rd or 9th positions which are important for HLA-A2 binding to the peptide, but less important for recognition by T-cell receptors, artificial peptides which can bind to HLA-A2.1 with higher affinity and still be recognized by natural epitope specific T-cells may be generated.

[3] = system: HLA-A2.1+ T2 cells; settings: for % specific lysis at E:T = 40:1: peptide 1 ug/ml

Row | Compound | pIC50 [1] | binding affinity to HLA-A2.1 compared with the natural epitope [1] | Recognition by G9-154 reactive T-cell [2] | recognition by the original melanoma reactive T-cells [2] | further results
1 | CC(C)[C@H](NC(=O)[C@H](CCC(N)=O)NC(=O)[C@H](Cc1c[nH]c2ccccc12)NC(=O)[C@H](Cc1ccc(O)cc1)NC(=O)[C@H](CCC(N)=O)NC(=O)CNC(=O)[C@H](Cc1c[nH]c2ccccc12)NC(=O)[C@@H](NC(=O)[C@@H](N)Cc1ccccc1)[C@@H](C)O)C(=O)O [G9-154-1F] (H-FTWGQYWQV-OH; N-terminus and C-terminus assumed) | 8.80 |  | − |  | 
2 | CC[C@H](C)[C@H](N)C(=O)N[C@@H](CCSC)C(=O)N[C@@H](CC(=O)O)C(=O)N[C@@H](CCC(N)=O)C(=O)N[C@H](C(=O)N1CCC[C@H]1C(=O)N[C@@H](Cc1ccccc1)C(=O)N[C@@H](CO)C(=O)N[C@H](C(=O)O)C(C)C)C(C)C [G9-209-2M] |  | higher binding affinity |  | recognized | Recognition by G9-209 reactive T-cell [2]: + (+, recognized)
3 | CC(C)C[C@H](NC(=O)[C@@H](N)Cc1ccccc1)C(=O)N[C@@H](Cc1c[nH]c2ccccc12)C(=O)NCC(=O)N[C@@H](CCC(N)=O)C(=O)N[C@@H](Cc1ccc(O)cc1)C(=O)N[C@@H](Cc1c[nH]c2ccccc12)C(=O)N[C@@H](CCC(N)=O)C(=O)N[C@H](C(=O)O)C(C)C [G9-154-1F2L] (H-FLWGQYWQV-OH; N-terminus and C-terminus assumed) | 8.59 |  | − |  | 
4 | CC(C)[C@H](NC(=O)[C@H](CCC(N)=O)NC(=O)[C@H](Cc1c[nH]c2ccccc12)NC(=O)[C@H](Cc1ccc(O)cc1)NC(=O)[C@H](CCC(N)=O)NC(=O)CNC(=O)[C@H](Cc1c[nH]c2ccccc12)NC(=O)[C@@H](NC(=O)[C@@H](N)Cc1ccc(O)cc1)[C@@H](C)O)C(=O)O [G9-154-1Y] | 8.60 |  | − |  | 
5 | CC(C)C[C@H](NC(=O)[C@@H](N)Cc1ccc(O)cc1)C(=O)N[C@@H](Cc1c[nH]c2ccccc12)C(=O)NCC(=O)N[C@@H](CCC(N)=O)C(=O)N[C@@H](Cc1ccc(O)cc1)C(=O)N[C@@H](Cc1c[nH]c2ccccc12)C(=O)N[C@@H](CCC(N)=O)C(=O)N[C@H](C(=O)O)C(C)C [G9-154-1Y2L] (H-YLWGQYWQV-OH; N-terminus and C-terminus assumed) | 8.77 |  | − |  | 
6 | CC(C)C[C@H](NC(=O)[C@@H](N)CC(C)C)C(=O)N[C@@H](Cc1c[nH]c2ccccc12)C(=O)NCC(=O)N[C@@H](CCC(N)=O)C(=O)N[C@@H](Cc1ccc(O)cc1)C(=O)N[C@@H](Cc1c[nH]c2ccccc12)C(=O)N[C@@H](CCC(N)=O)C(=O)N[C@H](C(=O)O)C(C)C [G9-154-1L2L] (H-LLWGQYWQV-OH; N-terminus and C-terminus assumed) | 8.80 |  | + (+, recognized) |  | 
7 | CC[C@H](C)[C@H](NC(=O)[C@@H](N)[C@@H](C)O)C(=O)N[C@H](C(=O)N[C@@H](CC(=O)O)C(=O)N[C@@H](CCC(N)=O)C(=O)N[C@H](C(=O)N1CCC[C@H]1C(=O)N[C@@H](Cc1ccccc1)C(=O)N[C@@H](CO)C(=O)N[C@H](C(=O)O)C(C)C)C(C)C)[C@@H](C)O [G10208] |  |  |  |  | % specific lysis at E:T = 40:1 ([3]; Exp. 1, TIL 620-1): 42%; % specific lysis at E:T = 40:1 ([3]; Exp. 1, TIL 620-2): 36%; % specific lysis at E:T = 40:1 ([3]; Exp. 1, TIL 660-1): 7%; % specific lysis at E:T = 40:1 ([3]; Exp. 1, TIL 1143): 4%; % specific lysis at E:T = 40:1 ([3]; Exp. 1, TIL 1200): 2%; % specific lysis at E:T = 40:1 ([3]; Exp. 1, TIL 1235): 3%; % specific lysis at E:T = 40:1 ([3]; Exp. 2, TIL 620-1): 35%; % specific lysis at E:T = 40:1 ([3]; Exp. 2, TIL 620-2): 80%; % specific lysis at E:T = 40:1 ([3]; Exp. 2, TIL 660-2): 7%; % specific lysis at E:T = 40:1 ([3]; Exp. 2, TIL 1143): 10%; % specific lysis at E:T = 40:1 ([3]; Exp. 2, TIL 1200): 1%; % specific lysis at E:T = 40:1 ([3]; Exp. 2, TIL 1235): 5%; TIL that recognize the peptide ([3]; cytotoxicity assays, T2 preincubated with peptide): recognized only by TIL620
8 | CC[C@H](C)[C@H](NC(=O)CNC(=O)[C@@H](NC(=O)[C@H](Cc1ccccc1)NC(=O)[C@H](C)NC(=O)[C@H](C)N)[C@@H](C)CC)C(=O)N[C@@H](CC(C)C)C(=O)N[C@H](C(=O)N[C@H](C(=O)O)C(C)C)[C@@H](C)O [M9-2-3F] |  |  |  |  | Recognition by M9-2 reactive T-cell [2]: −
9 | CC[C@H](C)[C@H](NC(=O)CNC(=O)[C@@H](NC(=O)[C@H](Cc1ccc(O)cc1)NC(=O)[C@H](CC(C)C)NC(=O)[C@H](C)N)[C@@H](C)CC)C(=O)N[C@@H](CC(C)C)C(=O)N[C@H](C(=O)N[C@H](C(=O)O)C(C)C)[C@@H](C)O [M9-2-2L3Y] |  |  |  |  | Recognition by M9-2 reactive T-cell [2]: −

More lines, main results first:

Row | pIC50 [1] | binding affinity to HLA-A2.1 compared with the natural epitope [1] | Compound | Recognition by G9-154 reactive T-cell [2] | recognition by the original melanoma reactive T-cells [2] | further results
10 |  | higher binding affinity | CC[C@H](C)[C@H](NC(=O)CNC(=O)[C@@H](NC(=O)[C@H](Cc1ccc(O)cc1)NC(=O)[C@H](C)NC(=O)[C@H](C)N)[C@@H](C)CC)C(=O)N[C@@H](CC(C)C)C(=O)N[C@H](C(=O)N[C@H](C(=O)O)C(C)C)[C@@H](C)O [M9-2-3Y] |  | recognized | Recognition by M9-2 reactive T-cell [2]: + (+, recognized)
11 |  | higher binding affinity | CC[C@H](C)[C@H](N)C(=O)N[C@@H](CC(C)C)C(=O)N[C@@H](CC(=O)O)C(=O)N[C@@H](CCC(N)=O)C(=O)N[C@H](C(=O)N1CCC[C@H]1C(=O)N[C@@H](Cc1ccccc1)C(=O)N[C@@H](CO)C(=O)N[C@H](C(=O)O)C(C)C)C(C)C [G9-209-2L] |  | recognized | Recognition by G9-209 reactive T-cell [2]: + (+, recognized)
12 | 7.52 |  | CC(C)[C@H](NC(=O)[C@H](CCC(N)=O)NC(=O)[C@H](Cc1c[nH]c2ccccc12)NC(=O)[C@H](Cc1ccc(O)cc1)NC(=O)[C@H](CCC(N)=O)NC(=O)CNC(=O)[C@H](Cc1ccc(O)cc1)NC(=O)[C@@H](NC(=O)[C@@H](N)CCCCN)[C@@H](C)O)C(=O)O [G9-154-3Y] (H-KTYGQYWQV-OH; N-terminus and C-terminus assumed) | + (+, recognized) |  | 
13 | 8.70 |  | CC(C)C[C@H](NC(=O)[C@@H](N)CCCCN)C(=O)N[C@@H](Cc1c[nH]c2ccccc12)C(=O)NCC(=O)N[C@@H](CCC(N)=O)C(=O)N[C@@H](Cc1ccc(O)cc1)C(=O)N[C@@H](Cc1c[nH]c2ccccc12)C(=O)N[C@@H](CCC(N)=O)C(=O)N[C@H](C(=O)O)C(C)C [G9-154-2L] (H-KLWGQYWQV-OH; N-terminus and C-terminus assumed) | + (+, recognized) |  | 
14 |  | higher binding affinity | CC(C)C[C@H](NC(=O)[C@@H](N)Cc1ccc(O)cc1)C(=O)N[C@@H](CC(=O)O)C(=O)N[C@@H](CCC(N)=O)C(=O)N[C@H](C(=O)N1CCC[C@H]1C(=O)N[C@@H](Cc1ccccc1)C(=O)N[C@@H](CO)C(=O)N[C@H](C(=O)O)C(C)C)C(C)C [G9-209-1Y2L] |  | recognized | Recognition by G9-209 reactive T-cell [2]: + (+, recognized)
15 | 7.68 |  | CC(C)[C@H](NC(=O)[C@H](CCC(N)=O)NC(=O)[C@H](Cc1c[nH]c2ccccc12)NC(=O)[C@H](Cc1ccc(O)cc1)NC(=O)[C@H](CCC(N)=O)NC(=O)CNC(=O)[C@H](Cc1ccccc1)NC(=O)[C@@H](NC(=O)[C@@H](N)CCCCN)[C@@H](C)O)C(=O)O [G9-154-3F] (H-KTFGQYWQV-OH; N-terminus and C-terminus assumed) | + (+, recognized) |  | 
16 |  | higher binding affinity | CC[C@H](C)[C@H](N)C(=O)N[C@H](C(=O)N[C@@H](CC(=O)O)C(=O)N[C@@H](CCC(N)=O)C(=O)N[C@H](C(=O)N1CCC[C@H]1C(=O)N[C@@H](Cc1ccccc1)C(=O)N[C@@H](CO)C(=O)N[C@H](C(=O)O)C(C)C)C(C)C)[C@@H](C)CC [G9-209-2I] |  | recognized | Recognition by G9-209 reactive T-cell [2]: + (+, recognized)
17 |  | higher binding affinity | CC[C@H](C)[C@H](NC(=O)CNC(=O)[C@H](CC(C)C)NC(=O)[C@H](C)N)C(=O)NCC(=O)N[C@H](C(=O)N[C@@H](CC(C)C)C(=O)N[C@H](C(=O)N[C@H](C(=O)O)C(C)C)[C@@H](C)O)[C@@H](C)CC [M9-2-2L] |  | recognized | Recognition by M9-2 reactive T-cell [2]: + (+, recognized)
18 |  | higher binding affinity | CC[C@H](C)[C@H](NC(=O)CNC(=O)[C@H](C)NC(=O)[C@@H](N)Cc1ccccc1)C(=O)NCC(=O)N[C@H](C(=O)N[C@@H](CC(C)C)C(=O)N[C@H](C(=O)N[C@H](C(=O)O)C(C)C)[C@@H](C)O)[C@@H](C)CC [M9-2-1F] |  | recognized | Recognition by M9-2 reactive T-cell [2]: + (+, recognized)
